From patent publication US20250049929A1, “NOVEL TETRAHYDROQUINOLINES AND PROTEOLYSIS TARGETING CHIMERA (PROTACS) COMPRISING THEM AS DEGRADERS OF SMARCA” (Boehringer Ingelheim International GmbH, priority 2021, published 2025)

Columns and labels:
SMARCA4 = target: T1, SMARCA4 (Homo sapiens, UniProt P51532); assay: SMARCA4 degradation analysis by imaging in RKO cells (DC50 A4); type: cell-based; settings: tables 69, 70, 73, 76-78
T1 construct: endogenous in cells; host or cells: RKO cells (CRL-2577, ATCC)
T1 sequence (P51532 whole entry): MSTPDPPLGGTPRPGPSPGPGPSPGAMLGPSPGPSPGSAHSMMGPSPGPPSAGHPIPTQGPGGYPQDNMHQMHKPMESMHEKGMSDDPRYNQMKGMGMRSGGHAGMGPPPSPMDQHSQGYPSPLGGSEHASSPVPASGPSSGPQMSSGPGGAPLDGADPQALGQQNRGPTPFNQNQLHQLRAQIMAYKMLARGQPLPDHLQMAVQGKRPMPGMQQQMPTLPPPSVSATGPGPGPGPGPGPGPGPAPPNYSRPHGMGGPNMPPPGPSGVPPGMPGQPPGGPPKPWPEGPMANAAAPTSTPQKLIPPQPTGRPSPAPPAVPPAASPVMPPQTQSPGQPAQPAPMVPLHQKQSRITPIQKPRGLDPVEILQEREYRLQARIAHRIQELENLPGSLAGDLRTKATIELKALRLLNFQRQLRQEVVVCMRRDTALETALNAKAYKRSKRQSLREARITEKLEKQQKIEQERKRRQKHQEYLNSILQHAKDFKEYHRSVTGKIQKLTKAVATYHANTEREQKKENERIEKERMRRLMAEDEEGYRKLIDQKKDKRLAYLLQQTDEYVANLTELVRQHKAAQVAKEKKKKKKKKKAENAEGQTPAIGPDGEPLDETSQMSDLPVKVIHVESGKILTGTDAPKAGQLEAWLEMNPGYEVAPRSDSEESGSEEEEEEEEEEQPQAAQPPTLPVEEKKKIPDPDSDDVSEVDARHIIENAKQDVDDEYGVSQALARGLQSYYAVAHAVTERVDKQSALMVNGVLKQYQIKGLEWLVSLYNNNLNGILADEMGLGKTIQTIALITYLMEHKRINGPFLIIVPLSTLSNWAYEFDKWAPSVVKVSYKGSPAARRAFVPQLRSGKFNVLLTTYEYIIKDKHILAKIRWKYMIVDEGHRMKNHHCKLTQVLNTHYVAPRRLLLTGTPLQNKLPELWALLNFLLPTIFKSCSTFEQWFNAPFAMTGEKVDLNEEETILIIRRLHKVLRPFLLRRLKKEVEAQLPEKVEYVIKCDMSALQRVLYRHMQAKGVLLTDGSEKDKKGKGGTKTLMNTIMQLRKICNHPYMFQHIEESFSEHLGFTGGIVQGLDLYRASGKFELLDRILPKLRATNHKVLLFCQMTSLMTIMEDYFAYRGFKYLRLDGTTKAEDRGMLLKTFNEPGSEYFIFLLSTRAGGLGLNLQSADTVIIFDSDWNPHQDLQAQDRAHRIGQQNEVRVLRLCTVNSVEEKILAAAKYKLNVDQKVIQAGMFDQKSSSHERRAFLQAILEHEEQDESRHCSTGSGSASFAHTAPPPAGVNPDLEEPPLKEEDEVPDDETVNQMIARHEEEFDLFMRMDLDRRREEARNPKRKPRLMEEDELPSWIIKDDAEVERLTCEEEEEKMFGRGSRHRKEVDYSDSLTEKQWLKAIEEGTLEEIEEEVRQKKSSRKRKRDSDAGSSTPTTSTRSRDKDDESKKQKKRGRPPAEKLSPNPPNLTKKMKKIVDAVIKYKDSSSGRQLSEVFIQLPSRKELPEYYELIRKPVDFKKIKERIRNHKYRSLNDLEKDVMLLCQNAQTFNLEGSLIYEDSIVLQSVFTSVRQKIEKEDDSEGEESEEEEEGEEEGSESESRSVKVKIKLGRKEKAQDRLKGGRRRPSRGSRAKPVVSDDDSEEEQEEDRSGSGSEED
Protocol: (§1) Determination of SMARCA2 and SMARCA4 Degradation (DC50 A2 and A4 [nM])
(§2) Protein Degradation Assays for SMARCA2 and SMARCA4
(§3) For degradation analysis by imaging, 1250 RKO cells (CRL-2577, ATCC) per well were seeded into 60 μL DMEM (Sigma Aldrich) supplemented with 10% FBS (Hyclone) in 384-well flat bottom plates (CellCarrier Ultra, Perkin Elmer) and incubated at 37° C. and 5% CO2 in a humidified atmosphere overnight. Compounds were added the next day using an Access Labcyte Workstation with a Labcyte Echo 550 or 555 acoustic dispenser and incubated with the cells for 4 or 24 h. Cells were fixed by adding 25 μL fixation buffer (7.4% formaldehyde (Sigma Aldrich F8775), 0.2% Triton TX100 (Sigma Aldrich F93443) in PBS) for 15 minutes at room temperature. After aspirating the fixing solution, the cells were washed once with 25 μL PBS and 25 μL of Blocking Buffer (10% Goat Serum in PBS) were added to each well and incubated for 30 minutes. Cells were washed with PBS and incubated with 20 μL mouse anti-Smarca4 (BRG1) antibody (Cell Signaling #52251) or rabbit anti-Smarca2 (BRM) antibody (Sigma Aldrich HPA029981) in blocking solution (PBS with 10% FCS) for ca. 2-4 h at RT. For detection of the nuclei, 25 μL of 5 μg/mL Hoechst 33342 (stock 10 mg/mL in H2O; Invitrogen H1399) were added together with Alexa Fluor 647 goat anti-mouse IgG (Invitrogen A-21235) or Alexa Fluor 488 goat anti-rabbit IgG (Invitrogen A-11034) in blocking solution and incubated for 60 min at RT. The cell layer was washed with 25 μL PBS, the wells were filled with 25 μL PBS and the plates sealed with an adhesive sheet. The mean intensity at 488 or 647 nm in the nucleus was measured using an Opera Phenix Plus High-Content Screening System (Perkin Elmer), values were normalized to the background and DMSO control and DC50 values were calculated and analyzed using a four-parametric logistic model.

SMARCA2 = target: T2, SMARCA2 (Homo sapiens, UniProt P51531); assay: SMARCA2 degradation analysis by imaging in RKO cells (DC50 A2); type: cell-based; settings: tables 69, 70, 73, 76-78
T2 construct: endogenous in cells; host or cells: RKO cells (CRL-2577, ATCC)
T2 sequence (P51531 whole entry): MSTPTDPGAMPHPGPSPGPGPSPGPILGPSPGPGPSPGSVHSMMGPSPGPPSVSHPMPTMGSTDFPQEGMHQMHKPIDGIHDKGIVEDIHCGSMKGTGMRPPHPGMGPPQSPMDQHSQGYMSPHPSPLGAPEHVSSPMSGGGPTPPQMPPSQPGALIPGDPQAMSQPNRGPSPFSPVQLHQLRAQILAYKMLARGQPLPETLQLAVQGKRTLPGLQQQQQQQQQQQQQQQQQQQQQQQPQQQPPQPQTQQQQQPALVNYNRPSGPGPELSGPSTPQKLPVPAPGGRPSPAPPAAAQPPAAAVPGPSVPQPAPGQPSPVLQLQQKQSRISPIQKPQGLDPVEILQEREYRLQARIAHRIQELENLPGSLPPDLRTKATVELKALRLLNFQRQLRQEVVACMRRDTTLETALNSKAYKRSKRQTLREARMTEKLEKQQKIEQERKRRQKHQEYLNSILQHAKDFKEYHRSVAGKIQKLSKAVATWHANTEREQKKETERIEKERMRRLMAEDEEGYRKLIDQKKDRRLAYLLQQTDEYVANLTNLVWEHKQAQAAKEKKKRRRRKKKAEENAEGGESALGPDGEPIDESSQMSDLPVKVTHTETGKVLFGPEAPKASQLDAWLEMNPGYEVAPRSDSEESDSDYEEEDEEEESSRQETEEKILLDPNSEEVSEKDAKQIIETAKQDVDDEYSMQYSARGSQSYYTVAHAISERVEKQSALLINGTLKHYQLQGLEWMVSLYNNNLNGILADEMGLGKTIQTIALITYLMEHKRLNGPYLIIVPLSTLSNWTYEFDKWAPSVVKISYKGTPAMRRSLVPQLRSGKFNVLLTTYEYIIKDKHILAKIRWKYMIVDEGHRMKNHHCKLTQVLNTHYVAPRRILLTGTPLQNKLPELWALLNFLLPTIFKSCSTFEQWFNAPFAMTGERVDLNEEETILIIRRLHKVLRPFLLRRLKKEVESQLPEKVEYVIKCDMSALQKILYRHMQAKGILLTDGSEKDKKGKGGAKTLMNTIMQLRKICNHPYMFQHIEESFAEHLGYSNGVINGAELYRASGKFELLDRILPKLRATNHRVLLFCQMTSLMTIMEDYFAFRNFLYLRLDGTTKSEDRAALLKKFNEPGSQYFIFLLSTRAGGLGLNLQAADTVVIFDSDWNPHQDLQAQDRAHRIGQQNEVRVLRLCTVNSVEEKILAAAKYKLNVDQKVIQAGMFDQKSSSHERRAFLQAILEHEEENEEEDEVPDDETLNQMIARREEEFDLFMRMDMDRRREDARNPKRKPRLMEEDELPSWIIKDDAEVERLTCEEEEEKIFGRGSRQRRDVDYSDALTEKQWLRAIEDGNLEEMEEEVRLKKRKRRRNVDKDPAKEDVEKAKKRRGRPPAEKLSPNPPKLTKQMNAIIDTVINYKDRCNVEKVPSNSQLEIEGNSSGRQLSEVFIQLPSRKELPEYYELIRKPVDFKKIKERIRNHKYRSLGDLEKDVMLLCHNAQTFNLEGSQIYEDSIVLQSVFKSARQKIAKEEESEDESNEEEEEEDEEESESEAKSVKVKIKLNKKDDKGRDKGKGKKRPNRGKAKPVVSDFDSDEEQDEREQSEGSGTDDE
Protocol: as §1, §2, §3

Structure (SMILES)	DC50 (SMARCA4)	DC50 (SMARCA2)
Cc1ncsc1-c1ccc([C@H](COCCN2CCC(c3cc4c(cc3OC3CCOC3)n3c5cccc(Br)c5c(=O)nc3n4C3CCCC3)CC2)NC(=O)[C@@H]2C[C@@H](O)CN2C(=O)[C@@H](NC(=O)C2(F)CC2)C(C)(C)C)cc1 (stereo partly drawn) [Compound 42az]	800 nM	36 nM
Cc1ncsc1-c1ccc([C@H](CC[C@H](C)CCN2CCC(c3ccc4c(c3)n([C@H]3CCOC3)c3nc(=O)c5c(Br)cccc5n43)CC2)NC(=O)[C@@H]2C[C@@H](O)CN2C(=O)[C@@H](NC(=O)C2(F)CC2)C(C)(C)C)cc1 [Compound 42b]	> 833 nM	2 nM
Cc1ncsc1-c1ccc([C@H](COCCN2CCC(c3ccc4c(c3)n(C3CCCC3)c3nc(=O)c5c(Br)cccc5n43)CC2)NC(=O)[C@@H]2C[C@@H](O)CN2C(=O)[C@@H](NC(=O)C2(C)CC2)C(C)(C)C)cc1 [Compound 42bb]	142 nM	17 nM
Cc1ncsc1-c1ccc([C@H](COCCN2CCC(c3ccc4c(c3)n(C3CCCC3)c3nc(=O)c5c(Br)cccc5n43)CC2)NC(=O)[C@@H]2C[C@@H](O)CN2C(=O)[C@@H](NC(=O)C2(C(F)(F)F)CC2)C(C)(C)C)cc1 [Compound 42bc]	133 nM	19 nM
Cc1ncsc1-c1ccc([C@H](COCCN2CCC(c3ccc4c(c3)n(C3CCCC3)c3nc(=O)c5c(Br)cccc5n43)CC2)NC(=O)[C@@H]2C[C@@H](O)CN2C(=O)[C@@H](NC(=O)C23CCCCC2C3)C(C)(C)C)cc1 (stereo partly drawn) [Compound 42bh]	153 nM	6 nM
CCC(C)(C)[C@H](NC(=O)C1(F)CC1)C(=O)N1C[C@H](O)C[C@H]1C(=O)N[C@@H](COC(C)(C)CN1CCN(c2ccc3c(c2)n(C2CCCC2)c2nc(=O)c4c(Br)cccc4n32)CC1)c1ccc(-c2scnc2C)cc1 [Compound 42j]	> 833 nM	4 nM
Cc1ncsc1-c1ccc([C@H](COC(C)(C)CN2CCC(c3ccc4c(c3)n(C3CCCC3)c3nc(=O)c5c(Br)cccc5n43)CC2)NC(=O)[C@@H]2C[C@@H](O)CN2C(=O)[C@@H](NC(=O)C2(F)CC2)C(C)(C)C)cc1 [Compound 42l]	> 833 nM	3 nM
Cc1ncsc1-c1ccc([C@H](CO[C@H](C)CN2CCC(c3ccc4c(c3)n(C3CCCC3)c3nc(=O)c5c(Br)cccc5n43)CC2)NC(=O)[C@@H]2C[C@@H](O)CN2C(=O)[C@@H](NC(=O)C2(F)CC2)C(C)(C)C)cc1 [Compound 42m]	> 833 nM	4 nM
Cc1ncsc1-c1ccc([C@H](COC(C)(C)CN2CCC(c3ccc4c(c3)n(C3CCCC3)c3nc(=O)c5c(Br)cccc5n43)CC2)NC(=O)[C@@H]2C[C@@H](O)CN2C(=O)[C@@H](NC(=O)C2(F)CC2)C2(C)CCCC2)cc1 [Compound 42n]	800 nM	3 nM
Cc1ncsc1-c1ccc([C@H](COCCN2CCC(c3ccc4c(c3)n(C3CCCC3)c3nc(=O)c5c(Br)cccc5n43)CC2)NC(=O)[C@@H]2C[C@@H](O)CN2C(=O)[C@@H](NC(=O)C2(F)CC2)C(C)(C)C)cc1 [Compound 42o]	90 nM	5 nM

Now those with a lower DC50 (SMARCA4), led by results:

DC50 (SMARCA4)	DC50 (SMARCA2)	Structure (SMILES)
87 nM	8 nM	COC(=O)C1(C(=O)N[C@H](C(=O)N2C[C@H](O)C[C@H]2C(=O)N[C@@H](COCCN2CCC(c3ccc4c(c3)n(C3CCCC3)c3nc(=O)c5c(Br)cccc5n43)CC2)c2ccc(-c3scnc3C)cc2)C(C)(C)C)CC1 [Compound 42bf]
83 nM	8 nM	CC(=O)O[C@@H]1C[C@@H](C(=O)N[C@@H](CCCCCN2CCC(c3ccc4c(c3)n(C3CCCC3)c3nc(=O)c5c(Br)cccc5n43)CC2)c2ccc(-c3scnc3C)cc2)N(C(=O)[C@@H](NC(=O)C2(F)CC2)C(C)(C)C)C1 [Compound 42bj]
80 nM	4.1 nM	Cc1ncsc1-c1ccc([C@H](CCC(O)CCN2CCC(c3ccc4c(c3)n(C3CCCC3)c3nc(=O)c5c(Br)cccc5n43)CC2)NC(=O)[C@@H]2C[C@@H](O)CN2C(=O)[C@@H](NC(=O)C2(F)CC2)C(C)(C)C)cc1 (stereo partly drawn) [Compound 42e]
67 nM	12 nM	Cc1ncsc1-c1ccc([C@H](COCCN2CCC(c3ccc4c(c3)n(C3CCCC3)c3nc(=O)c5c(Br)cccc5n43)CC2)NC(=O)[C@@H]2C[C@@H](O)CN2C(=O)[C@@H](NC(=O)C2(C#N)CC2)C(C)(C)C)cc1 [Compound 42be]
64 nM	11 nM	Cc1ncsc1-c1ccc([C@H](COCCN2CCC(c3ccc4c(c3)n(C3CCCC3)c3nc(=O)c5c(Br)cccc5n43)CC2)NC(=O)[C@@H]2C[C@@H](O)CN2C(=O)[C@@H](NC(=O)C2(C3CC3)CC2)C(C)(C)C)cc1 [Compound 42bd]
60 nM	3 nM	CCCCC(=O)O[C@@H]1C[C@@H](C(=O)N[C@@H](CC[C@H](C)CCN2CCC(c3ccc4c(c3)n(C3CCCC3)c3nc(=O)c5c(Br)cccc5n43)CC2)c2ccc(-c3scnc3C)cc2)N(C(=O)[C@@H](NC(=O)C2(F)CC2)C(C)(C)C)C1 [Compound 42bk]
46 nM	2 nM	Cc1ncsc1-c1ccc([C@H](CCCCCN2CCC(c3ccc4c(c3)n([C@H]3CC[C@@H](O)C3)c3nc(=O)c5c(Br)cccc5n43)CC2)NC(=O)[C@@H]2C[C@@H](O)CN2C(=O)[C@@H](NC(=O)C2(F)CC2)C(C)(C)C)cc1 [Compound 42f]
40 nM	3 nM	Cc1ncsc1-c1ccc([C@H](CCC(C)(C)CCN2CCC(c3ccc4c(c3)n(C3CCCC3)c3nc(=O)c5c(Br)cccc5n43)CC2)NC(=O)[C@@H]2C[C@@H](O)CN2C(=O)[C@@H](NC(=O)C2(F)CC2)C(C)(C)C)cc1 [Compound 42g]
24 nM	9 nM	Cc1ncsc1-c1ccc([C@H](COC(C)(C)CN2CCCN(c3ccc4c(c3)n(C3CCCC3)c3nc(=O)c5c(Br)cccc5n43)CC2)NC(=O)[C@@H]2C[C@@H](O)CN2C(=O)[C@@H](NC(=O)C2(F)CC2)C(C)(C)C)cc1 [Compound 42i]
22 nM	4 nM	CCn1c2cc(C3CCN(CCCCC[C@H](NC(=O)[C@@H]4C[C@@H](O)CN4C(=O)[C@@H](NC(=O)C4(F)CC4)C(C)(C)C)c4ccc(-c5scnc5C)cc4)CC3)ccc2n2c3cccc(Br)c3c(=O)nc12 [Compound 42ba]
11 nM	0.7 nM	Cc1ncsc1-c1ccc([C@H](CCCCCN2CCC(c3ccc4c(c3)n(C3CCCC3)c3nc(=O)c5c(Br)cccc5n43)CC2)NC(=O)[C@@H]2C[C@@H](O)CN2C(=O)[C@@H](NC(=O)C2(F)CC2)C(C)(C)C2CC2)cc1 [Compound 42c]
7 nM	0.7 nM	Cc1ncsc1-c1ccc([C@H](CC[C@@H](C)CCN2CCC(c3ccc4c(c3)n(C3CCCC3)c3nc(=O)c5c(Br)cccc5n43)CC2)NC(=O)[C@@H]2C[C@@H](O)CN2C(=O)[C@@H](NC(=O)C2(F)CC2)C(C)(C)C)cc1 [Compound 42d]
6 nM	3 nM	Cc1ncsc1-c1ccc([C@H](CCCN2CCC(c3ccc4c(c3)n(C3CCCC3)c3nc(=O)c5c(N)cccc5n43)CC2)NC(=O)[C@@H]2C[C@@H](O)CN2C(=O)[C@@H](NC(=O)C2(N3CCCC3)CC2)C(C)(C)C)cc1 [Compound 42bi]
4 nM	0.3 nM	Cc1ncsc1-c1ccc([C@H](CCCCCN2CCC(c3ccc4c(c3)n(C3CCCC3)c3nc(=O)c5c(Br)cccc5n43)CC2)NC(=O)[C@@H]2C[C@@H](O)CN2C(=O)[C@@H](NC(=O)C2(F)CC2)C(C)(C)C)cc1 [Compound 42h]
